Measurements taken from ChEMBL document CHEMBL3217498, “Structure and antimicrobial properties of multivalent short peptides” (Medchemcomm, 2011).
In brackets after ≈: the same amount, converted by molar mass. Activity calls are given as the source filed them. The rule behind the calls is not given here. Non-standard residues stand in square brackets, D forms with d. Residues, ends and D or L forms follow the SMILES beside them. Groups on a side chain read outwards from the residue. *: point of attachment. Lys(α,ε-(ArgTrp)2) = N=C(N)NCCC[C@H](N)C(=O)N[C@@H](Cc1c[nH]c2ccccc12)C(=O)NCCCC[C@H](NC(=O)[C@H](Cc1c[nH]c2ccccc12)NC(=O)[C@@H](N)CCCNC(=N)N)C(=O)*; βAla = NCCC(=O)O

Assays:
[1] = tested on: Staphylococcus aureus; experiment: Antibacterial activity against multidrug-resistant Staphylococcus aureus ATCC BAA-44 assessed as growth inhibition measured over 400 generation period by standard broth microdilution assay; type: functional, organism-based
[2] = tested on: Escherichia coli; experiment: Antibacterial activity against ampicillin and streptomycin-resistant Escherichia coli D31 assessed as growth inhibition measured over 400 generation period by standard broth microdilution assay; type: functional, organism-based
[3] = tested on: Acinetobacter baumannii; experiment: Antibacterial activity against multidrug-resistant Acinetobacter baumannii ATCC BAA-747 assessed as growth inhibition measured over 400 generation period by standard broth microdilution assay; type: functional, organism-based
[4] = tested on: Escherichia coli; experiment: Antibacterial activity against ampicillin and streptomycin-resistant Escherichia coli D31 assessed as growth inhibition after 18 hrs by standard broth microdilution assay; type: functional, organism-based; details: D31, 18 h
[5] = Induction of hemolysis in sheep erythrocytes after 60 mins by spectrophotometer analysis; type: cell-based, Ovis aries, Erythrocyte; details: read-out: HD50
[6] = tested on: Staphylococcus aureus; experiment: Antibacterial activity against multidrug-resistant Staphylococcus aureus ATCC BAA-44 assessed as growth inhibition after 18 hrs by standard broth microdilution assay; type: functional, organism-based; details: ATCC BAA-44, 18 h
[7] = tested on: Acinetobacter baumannii; experiment: Antibacterial activity against multidrug-resistant Acinetobacter baumannii ATCC BAA-747 assessed as growth inhibition after 18 hrs by standard broth microdilution assay; type: functional, organism-based; details: ATCC BAA-747, 18 h
[8] = Ratio of compound hemolytic index to indolicidin hemolytic index for ratio of HD50 for sheep erythrocytes to IC50 for Staphylococcus aureus ATCC BAA-44
[9] = Ratio of compound hemolytic index to indolicidin hemolytic index for ratio of HD50 for sheep erythrocytes to IC50 for Escherichia coli D31
[10] = tested on: Escherichia coli; experiment: Antibacterial activity against ampicillin and streptomycin-resistant Escherichia coli D31 assessed as growth inhibition measured over 400 generation period by standard broth microdilution assay relative to 50% growth inhibition after first day; type: functional
[11] = tested on: Acinetobacter baumannii; experiment: Antibacterial activity against multidrug-resistant Acinetobacter baumannii ATCC BAA-747 assessed as growth inhibition measured over 400 generation period by standard broth microdilution assay relative to 50% growth inhibition after first day; type: functional
[12] = tested on: Staphylococcus aureus; experiment: Antibacterial activity against multidrug-resistant Staphylococcus aureus ATCC BAA-44 assessed as growth inhibition measured over 400 generation period by standard broth microdilution assay relative to 50% growth inhibition after first day; type: functional

Molecule	IC50 [4]	HC50 at 1 h [5]	IC50 [6]	IC50 [7]	also measured
N=C(N)NCCC[C@H](NC(=O)[C@H](Cc1c[nH]c2ccccc12)NC(=O)[C@H](CCCNC(=N)N)NC(=O)[C@H](Cc1c[nH]c2ccccc12)NC(=O)[C@H](CCCNC(=N)N)NC(=O)[C@H](Cc1c[nH]c2ccccc12)NC(=O)[C@@H](N)CCCNC(=N)N)C(=O)N[C@@H](Cc1c[nH]c2ccccc12)C(=O)O (H-RWRWRWRW-OH)	–	–	–	–	growth inhibition (GI) [1]: Active; growth inhibition (GI) [2]: Active; growth inhibition (GI) [3]: Active
CC[C@H](C)[C@H](NC(C)=O)C(=O)N[C@@H](CC(C)C)C(=O)N1CCC[C@H]1C(=O)N[C@@H](Cc1c[nH]c2ccccc12)C(=O)N[C@@H](CCCCN)C(=O)N[C@@H](Cc1c[nH]c2ccccc12)C(=O)N1CCC[C@H]1C(=O)N[C@@H](Cc1c[nH]c2ccccc12)C(=O)N[C@@H](Cc1c[nH]c2ccccc12)C(=O)N1CCC[C@H]1C(=O)N[C@@H](Cc1c[nH]c2ccccc12)C(=O)N[C@@H](CCCNC(=N)N)C(=O)N[C@@H](CCCNC(=N)N)C(N)=O	–	–	–	–	growth inhibition (GI) [1]: Active; growth inhibition (GI) [2]: Active; growth inhibition (GI) [3]: Active
NC(=O)CCNC(=O)[C@H](CCCCNC(=O)[C@H](CCCCNC(=O)[C@H](Cc1c[nH]c2ccccc12)NC(=O)[C@@H](N)Cc1cnc[nH]1)NC(=O)[C@H](Cc1c[nH]c2ccccc12)NC(=O)[C@@H](N)Cc1cnc[nH]1)NC(=O)[C@H](CCCCNC(=O)[C@H](Cc1c[nH]c2ccccc12)NC(=O)[C@@H](N)Cc1cnc[nH]1)NC(=O)[C@H](Cc1c[nH]c2ccccc12)NC(=O)[C@@H](N)Cc1cnc[nH]1	30.6 µg/mL (≈ 17.3 µM)	1860 µg/mL	43.3 µg/mL (≈ 24.5 µM)	82.7 µg/mL (≈ 46.8 µM)	–
N=C(N)NCCC[C@H](N)C(=O)N[C@@H](Cc1c[nH]c2ccccc12)C(=O)NCCCC[C@H](NC(=O)[C@H](Cc1c[nH]c2ccccc12)NC(=O)[C@@H](N)CCCNC(=N)N)C(=O)NCCCC[C@H](NC(=O)[C@H](CCCCNC(=O)[C@H](Cc1c[nH]c2ccccc12)NC(=O)[C@@H](N)CCCNC(=N)N)NC(=O)[C@H](Cc1c[nH]c2ccccc12)NC(=O)[C@@H](N)CCCNC(=N)N)C(=O)NCCC(N)=O (H-RWK([Trp-Arg])K(Lys(α,ε-(ArgTrp)2))[βAla]-NH2)	3.9 µg/mL (≈ 2.12 µM)	1960 µg/mL	15 µg/mL (≈ 8.14 µM)	42 µg/mL (≈ 22.8 µM)	growth inhibition (GI) [1]: Active; growth inhibition (GI) [2]: Active; growth inhibition (GI) [3]: Active; Ratio [8]: 5; Ratio [9]: 10
GENTAMICIN	–	–	–	–	fold change (FC) [10]: 13; fold change (FC) [11]: 8
N=C(N)NCCC[C@H](NC(=O)[C@H](Cc1c[nH]c2ccccc12)NC(=O)[C@H](CCCNC(=N)N)NC(=O)[C@H](Cc1c[nH]c2ccccc12)NC(=O)[C@@H](N)CCCNC(=N)N)C(=O)N[C@@H](Cc1c[nH]c2ccccc12)C(=O)NCCCC[C@H](NC(=O)[C@H](Cc1c[nH]c2ccccc12)NC(=O)[C@H](CCCNC(=N)N)NC(=O)[C@H](Cc1c[nH]c2ccccc12)NC(=O)[C@H](CCCNC(=N)N)NC(=O)[C@H](Cc1c[nH]c2ccccc12)NC(=O)[C@@H](N)CCCNC(=N)N)C(=O)NCCCC[C@H](NC(=O)[C@H](CCCCNC(=O)[C@H](Cc1c[nH]c2ccccc12)NC(=O)[C@H](CCCNC(=N)N)NC(=O)[C@H](Cc1c[nH]c2ccccc12)NC(=O)[C@H](CCCNC(=N)N)NC(=O)[C@H](Cc1c[nH]c2ccccc12)NC(=O)[C@@H](N)CCCNC(=N)N)NC(=O)[C@H](Cc1c[nH]c2ccccc12)NC(=O)[C@H](CCCNC(=N)N)NC(=O)[C@H](Cc1c[nH]c2ccccc12)NC(=O)[C@H](CCCNC(=N)N)NC(=O)[C@H](Cc1c[nH]c2ccccc12)NC(=O)[C@@H](N)CCCNC(=N)N)C(=O)NCCC(N)=O (HELM PEPTIDE1{R.W.R.W.R.W.K.K.[bAla].[am]}|PEPTIDE2{R.W.R.W.R.W.K}|PEPTIDE3{R.W.R.W.R.W}|PEPTIDE4{R.W.R.W.R.W}$PEPTIDE1,PEPTIDE4,7:R3-6:R2|PEPTIDE1,PEPTIDE2,8:R3-7:R2|PEPTIDE2,PEPTIDE3,7:R3-6:R2$$$V2.0)	20.8 µg/mL (≈ 4.54 µM)	365 µg/mL	31.7 µg/mL (≈ 6.92 µM)	–	–
N=C(N)NCCC[C@H](N)C(=O)N[C@@H](Cc1ccc(O)cc1)C(=O)NCCCC[C@H](NC(=O)[C@H](Cc1ccc(O)cc1)NC(=O)[C@@H](N)CCCNC(=N)N)C(=O)NCCCC[C@H](NC(=O)[C@H](CCCCNC(=O)[C@H](Cc1ccc(O)cc1)NC(=O)[C@@H](N)CCCNC(=N)N)NC(=O)[C@H](Cc1ccc(O)cc1)NC(=O)[C@@H](N)CCCNC(=N)N)C(=O)NCCC(N)=O	12.6 µg/mL (≈ 7.2 µM)	2150 µg/mL	45.7 µg/mL (≈ 26.1 µM)	193 µg/mL (≈ 110 µM)	–
CN[C@H](CC(C)C)C(=O)N[C@H]1C(=O)N[C@@H](CC(N)=O)C(=O)N[C@H]2C(=O)N[C@H]3C(=O)N[C@H](C(=O)N[C@H](C(=O)O)c4cc(O)cc(O)c4-c4cc3ccc4O)[C@H](O)c3ccc(c(Cl)c3)Oc3cc2cc(c3O[C@@H]2O[C@H](CO)[C@@H](O)[C@H](O)[C@H]2O[C@H]2C[C@](C)(N)[C@H](O)[C@H](C)O2)Oc2ccc(cc2Cl)[C@H]1O [VANCOMYCIN]	–	–	–	–	fold change (FC) [12]: 2.5
NCCCC[C@H](N)C(=O)N[C@@H](Cc1ccc(O)cc1)C(=O)NCCCC[C@H](NC(=O)[C@H](Cc1ccc(O)cc1)NC(=O)[C@@H](N)CCCCN)C(=O)NCCCC[C@H](NC(=O)[C@H](CCCCNC(=O)[C@H](Cc1ccc(O)cc1)NC(=O)[C@@H](N)CCCCN)NC(=O)[C@H](Cc1ccc(O)cc1)NC(=O)[C@@H](N)CCCCN)C(=O)NCCC(N)=O	84.4 µg/mL (≈ 51.5 µM)	3740 µg/mL	240 µg/mL (≈ 147 µM)	360 µg/mL (≈ 220 µM)	–
NCCCC[C@H](N)C(=O)N[C@@H](Cc1ccccc1)C(=O)NCCCC[C@H](NC(=O)[C@H](Cc1ccccc1)NC(=O)[C@@H](N)CCCCN)C(=O)NCCCC[C@H](NC(=O)[C@H](CCCCNC(=O)[C@H](Cc1ccccc1)NC(=O)[C@@H](N)CCCCN)NC(=O)[C@H](Cc1ccccc1)NC(=O)[C@@H](N)CCCCN)C(=O)NCCC(N)=O	77 µg/mL (≈ 48.9 µM)	2500 µg/mL	145 µg/mL (≈ 92.1 µM)	175 µg/mL (≈ 111 µM)	–
O=C(O)c1cn(C2CC2)c2cc(N3CCNCC3)c(F)cc2c1=O [CIPROFLOXACIN]	–	–	–	–	fold change (FC) [11]: 43
NCCCC[C@H](N)C(=O)N[C@@H](Cc1c[nH]c2ccccc12)C(=O)NCCCC[C@H](NC(=O)[C@H](Cc1c[nH]c2ccccc12)NC(=O)[C@@H](N)CCCCN)C(=O)NCCCC[C@H](NC(=O)[C@H](CCCCNC(=O)[C@H](Cc1c[nH]c2ccccc12)NC(=O)[C@@H](N)CCCCN)NC(=O)[C@H](Cc1c[nH]c2ccccc12)NC(=O)[C@@H](N)CCCCN)C(=O)NCCC(N)=O	30.6 µg/mL (≈ 17.7 µM)	1460 µg/mL	23.3 µg/mL (≈ 13.5 µM)	52 µg/mL (≈ 30.1 µM)	–
N=C(N)NCCC[C@H](NC(=O)[C@H](Cc1c[nH]c2ccccc12)NC(=O)[C@@H](N)CCCNC(=N)N)C(=O)N[C@@H](Cc1c[nH]c2ccccc12)C(=O)NCCCC[C@H](NC(=O)[C@H](Cc1c[nH]c2ccccc12)NC(=O)[C@H](CCCNC(=N)N)NC(=O)[C@H](Cc1c[nH]c2ccccc12)NC(=O)[C@@H](N)CCCNC(=N)N)C(=O)NCCCC[C@H](NC(=O)[C@H](CCCCNC(=O)[C@H](Cc1c[nH]c2ccccc12)NC(=O)[C@H](CCCNC(=N)N)NC(=O)[C@H](Cc1c[nH]c2ccccc12)NC(=O)[C@@H](N)CCCNC(=N)N)NC(=O)[C@H](Cc1c[nH]c2ccccc12)NC(=O)[C@H](CCCNC(=N)N)NC(=O)[C@H](Cc1c[nH]c2ccccc12)NC(=O)[C@@H](N)CCCNC(=N)N)C(=O)NCCC(N)=O (HELM PEPTIDE1{R.W.R.W.K.K.[bAla].[am]}|PEPTIDE2{R.W.R.W}|PEPTIDE3{R.W.R.W.K}|PEPTIDE4{R.W.R.W}$PEPTIDE1,PEPTIDE2,5:R3-4:R2|PEPTIDE3,PEPTIDE4,5:R3-4:R2|PEPTIDE1,PEPTIDE3,6:R3-5:R2$$$V2.0)	16.4 µg/mL (≈ 5.11 µM)	131 µg/mL	23.6 µg/mL (≈ 7.35 µM)	–	–
N=C(N)NCCC[C@H](N)C(=O)N[C@@H](Cc1ccccc1)C(=O)NCCCC[C@H](NC(=O)[C@H](Cc1ccccc1)NC(=O)[C@@H](N)CCCNC(=N)N)C(=O)NCCCC[C@H](NC(=O)[C@H](CCCCNC(=O)[C@H](Cc1ccccc1)NC(=O)[C@@H](N)CCCNC(=N)N)NC(=O)[C@H](Cc1ccccc1)NC(=O)[C@@H](N)CCCNC(=N)N)C(=O)NCCC(N)=O	30 µg/mL (≈ 17.8 µM)	2780 µg/mL	180 µg/mL (≈ 107 µM)	160 µg/mL (≈ 94.9 µM)	–
N=C(NCCCCCCNC(=N)NC(=N)Nc1ccc(Cl)cc1)NC(=N)Nc1ccc(Cl)cc1 [CHLORHEXIDINE]	–	–	–	–	fold change (FC) [12]: 2.5; fold change (FC) [10]: 5
